Test results: patent US10590105B2, “1,3-dihydroxy-phenyl derivatives useful as immunomodulators” (BRISTOL-MYERS SQUIBB COMPANY, priority 2016, dated 2020)

Biological target: PD-1/PD-L1 interaction (PD-1-Ig / PD-L1-His) (Homo sapiens (Human), UniProt Q9NZQ7)
Experiment: PD-1/PD-L1 Homogenous Time-Resolved Fluorescence (HTRF) binding assay
Conditions: PD-1/PD-L1 HTRF binding assay; value given as range class; read-out: Range or IC50
Description: The ability of the compounds of formula (I) to bind to PD-L1 was investigated using a PD-1/PD-L1 Homogenous Time-Resolved Fluorescence (HTRF) binding assay.
Homogenous Time-Resolved Fluorescence (HTRF) Binding Assay.
The interaction of PD-1 and PD-L1 can be assessed using soluble, purified preparations of the extracellular domains of the two proteins. The PD-1 and PD-L1 protein extracellular domains were expressed as fusion proteins with detection tags, for PD-1, the tag was the Fc portion of Immunoglobulin (PD-1-Ig) and for PD-L1 it was the 6 histidine motif (PD-L1-His). All binding studies were performed in an HTRF assay buffer consisting of dPBS supplemented with 0.1% […] bovine serum albumin and 0.05% (v/v) Tween-20. For the h/PD-L1-His binding assay, inhibitors were pre-incubated with PD-L1-His (10 nM final) for 15 m in 4 μl of assay buffer, followed by addition of PD-1-Ig (20 nM final) in 1 μl of assay buffer and further incubation for 15 m. HTRF detection was achieved using europium crypate-labeled anti-Ig (1 nM final) and allophycocyanin (APC) labeled anti-His (20 nM final). Antibodies were diluted in HTRF detection buffer and 5 μl was dispensed on top of the binding reaction. The reaction mixture was allowed to equilibrate for 30 minutes and the resulting signal (665 nm/620 nm ratio) was obtained using an EnVision fluorometer. Additional binding assays were established between the human proteins PD-1-Ig/PD-L2-His (20 & 5 nM, respectively) and CD80-His/PD-L1-Ig (100 & 10 nM, respectively).
Recombinant Proteins. Human PD-1 (25-167) with a C-terminal human Fc domain of immunoglobulin G (Ig) epitope tag [hPD-1 (25-167)-3S-IG] and human PD-L1 (18-239) with a C-terminal His epitope tag [hPD-L1(18-239)-TVMV-His] were expressed in HEK293T cells and purified sequentially by ProteinA affinity chromatography and size exclusion chromatography. Human PD-L2-His and CD80-His was obtained through commercial sources.
Ranges are as follows: A=0.001 to 0.010 micromolar; B=0.011 to 0.150 micromolar; C=0.151 to 10 micromolar.

Chain of PD-1/PD-L1 interaction (PD-1-Ig / PD-L1-His) (Q9NZQ7 other isoform, or with tags, fused parts or gaps): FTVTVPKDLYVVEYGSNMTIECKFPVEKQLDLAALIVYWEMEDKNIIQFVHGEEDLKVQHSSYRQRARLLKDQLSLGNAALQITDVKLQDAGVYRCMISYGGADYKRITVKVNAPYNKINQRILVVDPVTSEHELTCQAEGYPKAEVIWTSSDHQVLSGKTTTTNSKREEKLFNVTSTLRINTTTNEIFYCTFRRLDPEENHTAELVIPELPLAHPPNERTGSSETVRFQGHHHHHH

| IC50 [nM] | Compound |
| --- | --- |
| 11 to 150 | Cc1c(COc2cc(OCc3cncc(C#N)c3)c(CNC(C)(C)C(=O)O)cc2Cl)cccc1-c1ccc2scnc2c1 [Example 1022, 2-((4-((3-(benzo[d]thiazol-5-yl)-2-methylbenzyl)oxy)-5-chloro-2-((5-cyanopyridin-3-yl)methoxy)benzyl)amino)-2-methylpropanoic acid] |
| 1 to 10 | Cc1c(COc2cc(OCc3cncc(C#N)c3)c(CNC(C)(CO)CO)cc2Cl)cccc1-c1nccc(OCCCO)c1Cl [Example 2004, 5-((4-chloro-5-((3-(3-chloro-4-(3-hydroxypropoxy)pyridin-2-yl)-2-methylbenzyl)oxy)-2-(((1,3-dihydroxy-2-methylpropan-2-yl)amino)methyl)phenoxy)methyl)nicotinonitrile] |
| 1 to 10 | Cc1c(COc2cc(OCc3cncc(C#N)c3)c(CNC(C)(CO)CO)cc2Cl)cccc1-c1nccc(OCCCN2CC[C@@H](O)C2)c1Cl [Example 2002, (R)-5-((4-chloro-5-((3-(3-chloro-4-(3-(3-hydroxypyrrolidin-1-yl)propoxy)pyridin-2-yl)-2-methylbenzyl)oxy)-2-(((1,3-dihydroxy-2-methylpropan-2-yl)amino)methyl)phenoxy)methyl)nicotinonitrile] |
| 1 to 10 | Cc1c(COc2cc(OCc3cncc(C#N)c3)c(CN[C@](C)(CO)C(=O)O)cc2Cl)cccc1-c1ccc2ccoc2c1 [Example 1019, (R)-2-((4-((3-(benzofuran-6-yl)-2-methylbenzyl)oxy)-5-chloro-2-((5-cyanopyridin-3-yl)methoxy)benzyl)amino)-3-hydroxy-2-methylpropanoic acid] |
| 1 to 10 | Cc1c(COc2cc(OCc3cncc(C#N)c3)c(CN[C@](C)(CO)C(=O)O)cc2Cl)cccc1-c1ccc2nccnc2c1 [Example 1035, (R)-2-((5-chloro-2-((5-cyanopyridin-3-yl)methoxy)-4-((2-methyl-3-(quinoxalin-6-yl)benzyl)oxy)benzyl)amino)-3-hydroxy-2-methylpropanoic acid] |
| 1 to 10 | Cc1c(OCCCN2CC[C@@H](O)C2)cccc1-c1ccnc(COc2cc(OCc3cncc(C#N)c3)c(CN[C@@](C)(CO)C(=O)O)cc2Cl)c1C [Example 2012, (S)-2-((5-chloro-2-((5-cyanopyridin-3-yl)methoxy)-4-((4-(3-(3-((R)-3-hydroxypyrrolidin-1-yl)propoxy)-2-methylphenyl)-3-methylpyridin-2-yl)methoxy)benzyl)amino)-3-hydroxy-2-methylpropanoic acid] |
| 11 to 150 | Cc1c(COc2cc(OCc3cncc(C#N)c3)c(CN3CCCC[C@H]3C(=O)O)cc2Cl)cccc1-c1ccc2nccnc2c1 [Example 1032, (S)-1-(5-chloro-2-((5-cyanopyridin-3-yl)methoxy)-4-((2-methyl-3-(quinoxalin-6-yl)benzyl)oxy)benzyl)piperidine-2-carboxylic acid] |
| 151 to 10000 | Cc1nn(-c2cccc(COc3cc(OCc4cncc(C#N)c4)c(CNCCN4CC[C@@H](O)C4)cc3Cl)c2C)c(C)c1CNCCN1CC[C@@H](O)C1 [Example 2006, 5-((4-chloro-2-(((2-((R)-3-hydroxypyrrolidin-1-yl)ethyl)amino)methyl)-5-((3-(4-(((2-((R)-3-hydroxypyrrolidin-1-yl)ethyl)amino)methyl)-3,5-dimethyl-1H-pyrazol-1-yl)-2-methylbenzyl)oxy)phenoxy)methyl)nicotinonitrile] |
| 151 to 10000 | 2-((5-chloro-2-((5-cyanopyridin-3-yl)methoxy)-4-((3-(1-(2-(dimethylamino)ethyl)-1H-benzo[d]imidazol-6-yl)-2-methylbenzyl)oxy)benzyl)amino)-2-methylpropanoic acid and 2-((5-chloro-2-((5-cyanopyridin-3-yl)methoxy)-4-((3-(1-(2-(dimethylamino)ethyl)-1H-benzo[d]imidazol-5-yl)-2-methylbenzyl)oxy)benzyl)amino)-2-methylpropanoic acid [Example 1026] |

Second part, the compound before the results:

| Compound | IC50 [nM] |
| --- | --- |
| Cc1c(COc2cc(OCc3cncc(C#N)c3)c(CN[C@](C)(CO)C(=O)O)cc2Cl)cccc1-c1cccn(CCCN2CC[C@@H](O)C2)c1=O [Example 1038, (R)-2-((5-chloro-2-((5-cyanopyridin-3-yl)methoxy)-4-((3-(1-(3-((R)-3-hydroxypyrrolidin-1-yl)propyl)-2-oxo-1,2-dihydropyridin-3-yl)-2-methylbenzyl)oxy)benzyl)amino)-3-hydroxy-2-methylpropanoic acid] | 151 to 10000 |
| Cc1c(COc2cc(OCc3cncc(C#N)c3)c(CN3CCCC[C@H]3C(=O)O)cc2Cl)cccc1-c1ccc2ocnc2c1 [Example 1041, (S)-1-(4-((3-(benzo[d]oxazol-5-yl)-2-methylbenzyl)oxy)-5-chloro-2-((5-cyanopyridin-3-yl)methoxy)benzyl)piperidine-2-carboxylic acid] | 1 to 10 |
| Cc1c(COc2cc(OCc3cncc(C#N)c3)c(CN[C@](C)(CO)C(=O)O)cc2Cl)cccc1-c1ccc2ccccc2n1 [Example 1004, (R)-2-((5-chloro-2-((5-cyanopyridin-3-yl)methoxy)-4-((2-methyl-3-(quinolin-2-yl)benzyl)oxy)benzyl)amino)-3-hydroxy-2-methylpropanoic acid] | 151 to 10000 |
| Cc1c(COc2cc(OCc3cncc(C#N)c3)c(CNC(C)(CO)CO)cc2Cl)cccc1-c1ccnc(OCCCN2CCCCC2)c1Cl [Example 2001, 5-((4-chloro-5-((3-(3-chloro-2-(3-(piperidin-1-yl)propoxy)pyridin-4-yl)-2-methylbenzyl)oxy)-2-(((1,3-dihydroxy-2-methylpropan-2-yl)amino)methyl)phenoxy)methyl)nicotinonitrile] | 1 to 10 |
| Cc1c(COc2cc(OCc3cncc(C#N)c3)c(CN[C@@](C)(CO)C(=O)O)cc2Cl)cccc1-c1ccc2nccnc2c1 [Example 1036, (S)-2-((5-chloro-2-((5-cyanopyridin-3-yl)methoxy)-4-((2-methyl-3-(quinoxalin-6-yl)benzyl)oxy)benzyl)amino)-3-hydroxy-2-methylpropanoic acid] | 1 to 10 |
| Cc1c(COc2cc(OCc3cncc(C#N)c3)c(CN[C@@H](CCCNC(=N)N)C(=O)O)cc2Cl)cccc1-c1ccc2occc2c1 [Example 1014, (S)-2-((4-((3-(benzofuran-5-yl)-2-methylbenzyl)oxy)-5-chloro-2-((5-cyanopyridin-3-yl)methoxy)benzyl)amino)-5-guanidinopentanoic acid] | 151 to 10000 |
| Cc1c(COc2cc(OCc3cncc(C#N)c3)c(CN3CCC[C@@]3(C)C(=O)O)cc2Cl)cccc1-c1ccc2ccoc2c1 [Example 1020, (S)-1-(4-((3-(benzofuran-6-yl)-2-methylbenzyl)oxy)-5-chloro-2-((5-cyanopyridin-3-yl)methoxy)benzyl)-2-methylpyrrolidine-2-carboxylic acid] | 1 to 10 |
| Cc1c(OCCCN2CCCCC2)cccc1-c1ccnc(COc2cc(OCc3cncc(C#N)c3)c(CN3CCCC[C@H]3C(=O)O)cc2Cl)c1C [Example 2014, (S)-1-(5-chloro-2-((5-cyanopyridin-3-yl)methoxy)-4-((3-methyl-4-(2-methyl-3-(3-(piperidin-1-yl)propoxy)phenyl)pyridin-2-yl)methoxy)benzyl)piperidine-2-carboxylic acid] | 11 to 150 |
| Cc1c(COc2cc(OCc3cncc(C#N)c3)c(CN[C@](C)(CO)C(=O)O)cc2Cl)cccc1-c1ccc2ccncc2c1 [Example 1008, (R)-2-((5-chloro-2-((5-cyanopyridin-3-yl)methoxy)-4-((3-(isoquinolin-7-yl)-2-methylbenzyl)oxy)benzyl)amino)-3-hydroxy-2-methylpropanoic acid] | 11 to 150 |
